# Results as given in patent US12264156B2, “Compounds and pharmaceutical compositions thereof for the treatment of diseases” (GALAPAGOS NV, priority 2018, dated 2025).
# Key:
# Format in all cases: biochemical
# Conditions in all cases: ADP-Glo SIK kinase assay
# [1] = target: T1, SIK1 (Homo sapiens, UniProt P57059); test: ADP-Glo kinase assay, SIK1
# T1 construct: purchased Carna Biosciences 02-131
# How it was run: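 Enzyme–substrate mix was started with ATP and incubated 120 min at RT. ADP formed was quantified by ADP-Glo: 40 min ATP depletion, then 30 min detection reagent converting ADP to ATP for luciferase luminescence, which rises with kinase activity. Controls: 1% DMSO and 10 μM staurosporine (final).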
# [2] = target: T2, SIK2 (Homo sapiens, UniProt Q9H0K1); test: ADP-Glo kinase assay, SIK2
# T2 construct: purchased ThermoFisher Scientific PV4792
# T2 sequence (Q9H0K1 whole entry): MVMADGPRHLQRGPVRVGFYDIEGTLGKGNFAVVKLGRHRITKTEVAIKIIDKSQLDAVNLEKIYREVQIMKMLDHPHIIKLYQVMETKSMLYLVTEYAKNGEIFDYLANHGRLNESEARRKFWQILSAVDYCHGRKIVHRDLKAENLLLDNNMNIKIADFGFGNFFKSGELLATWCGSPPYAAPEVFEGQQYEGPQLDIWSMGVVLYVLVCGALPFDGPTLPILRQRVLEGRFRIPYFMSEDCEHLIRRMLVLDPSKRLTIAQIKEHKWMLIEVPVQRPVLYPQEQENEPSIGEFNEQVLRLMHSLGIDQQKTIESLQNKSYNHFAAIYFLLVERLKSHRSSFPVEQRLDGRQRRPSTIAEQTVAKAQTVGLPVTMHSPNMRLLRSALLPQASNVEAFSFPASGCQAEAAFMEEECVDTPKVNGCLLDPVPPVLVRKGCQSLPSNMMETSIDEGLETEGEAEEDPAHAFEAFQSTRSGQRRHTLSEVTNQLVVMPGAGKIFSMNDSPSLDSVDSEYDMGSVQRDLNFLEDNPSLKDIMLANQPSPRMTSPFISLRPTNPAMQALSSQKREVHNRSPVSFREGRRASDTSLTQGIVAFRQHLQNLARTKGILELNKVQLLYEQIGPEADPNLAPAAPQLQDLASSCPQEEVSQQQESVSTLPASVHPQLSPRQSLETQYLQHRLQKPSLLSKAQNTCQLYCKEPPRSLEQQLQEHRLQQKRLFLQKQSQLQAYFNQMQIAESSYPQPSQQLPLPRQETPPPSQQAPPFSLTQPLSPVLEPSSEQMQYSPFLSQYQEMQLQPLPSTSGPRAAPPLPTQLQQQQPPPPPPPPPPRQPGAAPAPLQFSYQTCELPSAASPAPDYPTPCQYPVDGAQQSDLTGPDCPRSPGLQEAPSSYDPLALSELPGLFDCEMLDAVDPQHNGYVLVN
# How it was run: (§1)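 ADP-Glo, RT throughout. Enz/substrate + ATP, 120 min; ADP-Glo reagent 40 min (ATP depletion); detection reagent 30 min; luminescence read. Neg ctrl 1% DMSO, pos ctrl 10 μM staurosporine, final concs.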
# [3] = target: T3, SIK3 (Homo sapiens, UniProt Q9Y2K2); test: ADP-Glo kinase assay, SIK3
# T3 construct: purchased SignalChem S12-11G-100
# T3 sequence (Q9Y2K2 whole entry): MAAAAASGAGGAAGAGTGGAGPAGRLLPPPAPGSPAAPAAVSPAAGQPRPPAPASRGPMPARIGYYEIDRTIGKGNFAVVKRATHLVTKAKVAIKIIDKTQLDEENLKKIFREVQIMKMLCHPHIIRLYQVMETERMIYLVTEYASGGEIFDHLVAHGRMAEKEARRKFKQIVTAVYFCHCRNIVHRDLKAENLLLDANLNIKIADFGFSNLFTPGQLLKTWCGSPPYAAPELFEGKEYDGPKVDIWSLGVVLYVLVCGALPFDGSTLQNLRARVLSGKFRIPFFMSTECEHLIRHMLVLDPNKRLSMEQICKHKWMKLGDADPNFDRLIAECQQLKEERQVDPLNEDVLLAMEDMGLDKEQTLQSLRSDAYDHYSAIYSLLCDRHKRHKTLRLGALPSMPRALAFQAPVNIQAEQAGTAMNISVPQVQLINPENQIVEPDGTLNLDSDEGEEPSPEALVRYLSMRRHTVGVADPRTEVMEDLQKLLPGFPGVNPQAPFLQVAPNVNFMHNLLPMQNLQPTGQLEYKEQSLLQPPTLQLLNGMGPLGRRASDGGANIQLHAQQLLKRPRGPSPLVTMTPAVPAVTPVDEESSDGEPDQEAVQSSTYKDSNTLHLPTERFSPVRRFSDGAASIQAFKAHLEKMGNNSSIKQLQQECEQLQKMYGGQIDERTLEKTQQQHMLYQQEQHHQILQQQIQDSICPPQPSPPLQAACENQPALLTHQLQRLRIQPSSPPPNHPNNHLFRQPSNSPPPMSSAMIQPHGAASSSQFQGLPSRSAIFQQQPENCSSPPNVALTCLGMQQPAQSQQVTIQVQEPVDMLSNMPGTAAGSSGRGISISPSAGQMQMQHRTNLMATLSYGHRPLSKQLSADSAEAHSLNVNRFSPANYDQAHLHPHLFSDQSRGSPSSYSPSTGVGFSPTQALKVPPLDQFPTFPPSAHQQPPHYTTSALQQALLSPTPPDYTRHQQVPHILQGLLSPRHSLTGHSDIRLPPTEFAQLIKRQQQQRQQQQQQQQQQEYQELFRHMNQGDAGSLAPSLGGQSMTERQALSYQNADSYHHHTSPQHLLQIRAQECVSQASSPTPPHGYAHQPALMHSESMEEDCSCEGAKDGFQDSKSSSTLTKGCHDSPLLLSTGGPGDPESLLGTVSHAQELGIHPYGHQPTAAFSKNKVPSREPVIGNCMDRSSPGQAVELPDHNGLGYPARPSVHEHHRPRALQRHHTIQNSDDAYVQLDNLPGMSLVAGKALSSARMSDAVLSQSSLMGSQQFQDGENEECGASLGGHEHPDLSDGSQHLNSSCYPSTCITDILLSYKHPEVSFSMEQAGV
# How it was run: as §1
# T1 sequence (P57059 whole entry): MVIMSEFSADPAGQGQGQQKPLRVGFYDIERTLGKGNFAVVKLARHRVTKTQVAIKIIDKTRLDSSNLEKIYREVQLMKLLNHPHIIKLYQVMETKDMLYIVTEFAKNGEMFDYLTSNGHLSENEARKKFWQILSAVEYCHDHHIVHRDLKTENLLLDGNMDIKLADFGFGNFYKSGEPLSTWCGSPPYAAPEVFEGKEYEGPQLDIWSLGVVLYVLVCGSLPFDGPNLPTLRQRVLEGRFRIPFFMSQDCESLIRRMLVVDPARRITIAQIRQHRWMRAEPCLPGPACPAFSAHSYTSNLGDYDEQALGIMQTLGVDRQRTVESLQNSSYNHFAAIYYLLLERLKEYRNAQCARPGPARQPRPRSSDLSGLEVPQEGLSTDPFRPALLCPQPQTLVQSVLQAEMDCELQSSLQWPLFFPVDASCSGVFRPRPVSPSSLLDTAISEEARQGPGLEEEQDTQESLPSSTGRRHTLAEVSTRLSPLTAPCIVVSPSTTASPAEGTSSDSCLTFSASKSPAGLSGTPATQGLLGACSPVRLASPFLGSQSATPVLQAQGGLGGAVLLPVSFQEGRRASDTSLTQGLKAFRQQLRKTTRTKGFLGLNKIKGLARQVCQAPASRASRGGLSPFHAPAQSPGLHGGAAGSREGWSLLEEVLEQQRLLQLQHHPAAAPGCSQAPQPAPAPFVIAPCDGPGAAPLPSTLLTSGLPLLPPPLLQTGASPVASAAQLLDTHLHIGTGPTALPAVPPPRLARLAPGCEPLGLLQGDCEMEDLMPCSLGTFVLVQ
Structure (SMILES),IC50 [1],IC50 [2],IC50 [3]
"COc1cc(-c2cnc3cc(OCC4(C)CNC4)ccn23)cc2c1C(=O)N(CC(F)(F)F)CC2 [Cpd 251, 8-methoxy-6-[7-[(3-methylazetidin-3-yl)methoxy]imidazo [1,2-a]pyridin-3-yl]-2-(2,2,2-trifluoroethyl)-3,4-dihydroisoquinolin-1-one]",100 to 500 nM,10 to 100 nM,0.01 to 10 nM
"COc1cc(-c2cnc3cc(OCCCN4CCc5nc(C)sc5C4)ccn23)cc(OC(F)F)c1C(=O)NC1CC1 [compound 320, N-cyclopropyl-2-(difluoromethoxy)-6-methoxy-4-[7-[3-(2-methyl-6,7-dihydro-4H-thiazolo[5,4-c]pyridin-5-yl)propoxy]imidazo[1,2-a]pyridin-3-yl]benzamide]",10 to 100 nM,0.01 to 10 nM,0.01 to 10 nM
"COc1cc(-c2cnc3cc(OCCN4CCCC(F)C4)ccn23)cc(OC(F)F)c1C(=O)NC1CC1 (stereo not drawn) [compound 212, N-cyclopropyl-2-(difluoromethoxy)-4-[7-[2-(3-fluoro-1-piperidyl)ethoxy]imidazo[1,2-a]pyridin-3-yl]-6-methoxy-benzamide]",10 to 100 nM,0.01 to 10 nM,0.01 to 10 nM
"COc1cc(-c2cnc3cc(OCC4(F)CNC4)ccn23)cc(OC(F)F)c1C(=O)NC1CC1 [compound 207, N-cyclopropyl-2-(difluoromethoxy)-4-[7-[(3-fluoroazetidin-3-yl)methoxy]imidazo[1,2-a]pyridin-3-yl]-6-methoxy-benzamide]",10 to 100 nM,0.01 to 10 nM,0.01 to 10 nM
"COc1cc(-c2cnc3cc(OCC(C)(C)OC)ccn23)cc(OC(F)F)c1C(=O)NC1CC1 [compound 3, N-cyclopropyl-2-(difluoromethoxy)-6-methoxy-4-[7-(2-methoxy-2-methyl-propoxy)imidazo[1,2-a]pyridin-3-yl]benzamide]",10 to 100 nM,0.01 to 10 nM,0.01 to 10 nM
"COc1cc(-c2cnc3cc(OCCN(C)c4ccncn4)ccn23)cc(OC(F)F)c1C(=O)NC1CC1 [compound 239, N-cyclopropyl-2-(difluoromethoxy)-6-methoxy-4-[7-[2-[methyl(pyrimidin-4-yl)amino]ethoxy]imidazo [1,2-a]pyridin-3-yl]benzamide]",0.01 to 10 nM,0.01 to 10 nM,0.01 to 10 nM
"COc1cc(-c2cnc3cc(OCCCN4CCn5ncnc5C4)ccn23)cc(OC(F)F)c1C(=O)NC1CC1 [compound 313, N-cyclopropyl-2-(difluoromethoxy)-4-[7-[3-(6,8-dihydro-5H-[1,2,4]triazolo[1,5-a]pyrazin-7-yl)propoxy]imidazo[1,2-a]pyridin-3-yl]-6-methoxy-benzamide]",10 to 100 nM,0.01 to 10 nM,0.01 to 10 nM
"COc1cc(-c2cnc3cc(OCC4CCN(C)C4)ccn23)cc(OC(F)F)c1C(=O)NC1CC1 (stereo not drawn) [compound 144, N-cyclopropyl-2-(difluoromethoxy)-6-methoxy-4-[7-[(1-methylpyrrolidin-3-yl)methoxy]imidazo[1,2-a]pyridin-3-yl]benzamide]",10 to 100 nM,0.01 to 10 nM,0.01 to 10 nM
"COc1cc(-c2cnc3cc(OCC4CN(C)CCO4)ccn23)cc(OC(F)F)c1C(=O)NC1CC1 (stereo not drawn) [compound 82, N-cyclopropyl-2-(difluoromethoxy)-6-methoxy-4-[7-[(4-methylmorpholin-2-yl)methoxy]imidazo[1,2-a]pyridin-3-yl]benzamide]",10 to 100 nM,0.01 to 10 nM,0.01 to 10 nM
"COc1cc(-c2cnc3cc(OCc4cn(C)cn4)ccn23)cc(OC(F)F)c1C(=O)NC1CC1 [Cpd 101, N-cyclopropyl-2-(difluoromethoxy)-6-methoxy-4-[7-[(1-methylimidazol-4-yl)methoxy]imidazo[1,2-a]pyridin-3-yl]benzamide]",10 to 100 nM,0.01 to 10 nM,0.01 to 10 nM
"COc1cc(-c2cnc3cc(OCC4CCCCN4C(C)=O)ccn23)cc(OC(F)F)c1C(=O)NC1CC1 (stereo not drawn) [Cpd 141, 4-[7-[(1-acetyl-2-piperidyl)methoxy]imidazo [1,2-a]pyridin-3-yl]-N-cyclopropyl-2-(difluoromethoxy)-6-methoxy-benzamide]",0.01 to 10 nM,0.01 to 10 nM,0.01 to 10 nM
"COCCOCCOc1ccn2c(-c3cc(OC)c(C(=O)NC4CC4)c(OC(F)F)c3)cnc2c1 [compound 38, N-cyclopropyl-2-(difluoromethoxy)-6-methoxy-4-[7-[2-(2-methoxyethoxy)ethoxy]imidazo[1,2-a]pyridin-3-yl]benzamide]",10 to 100 nM,0.01 to 10 nM,0.01 to 10 nM
"COc1cc(-c2cnc3cc(OCCNc4ncccn4)ccn23)cc(OC(F)F)c1C(=O)NC1CC1 [compound 368, N-cyclopropyl-2-(difluoromethoxy)-6-methoxy-4-[7-[2-(pyrimidin-2-ylamino)ethoxy]imidazo [1,2-a]pyridin-3-yl]benzamide]",0.01 to 10 nM,0.01 to 10 nM,0.01 to 10 nM
"COc1cc(-c2cnc3cc(OCc4cocn4)ccn23)cc(OC(F)F)c1C(=O)NC1CC1 [compound 60, N-cyclopropyl-2-(difluoromethoxy)-6-methoxy-4-[7-(oxazol-4-ylmethoxy)imidazo[1,2-a]pyridin-3-yl]benzamide]",10 to 100 nM,0.01 to 10 nM,0.01 to 10 nM
"COc1cc(-c2cnc3cc(OCCO)ccn23)cc(OC(F)F)c1C(=O)NC1CC1 [compound 30, N-cyclopropyl-2-(difluoromethoxy)-4-[7-(2-hydroxyethoxy)imidazo [1,2-a]pyridin-3-yl]-6-methoxy-benzamide]",10 to 100 nM,0.01 to 10 nM,0.01 to 10 nM
COc1cc(-c2cnc3cc(OCCOCCO)ccn23)cc(OC(F)F)c1C(=O)NC1CC1 [compound 73],10 to 100 nM,0.01 to 10 nM,0.01 to 10 nM
"COc1cc(-c2cnc3cc(OCCN4CCOCC4(C)C)ccn23)cc(OC(F)F)c1C(=O)NC1CC1 [compound 192, N-cyclopropyl-2-(difluoromethoxy)-4-[7-[2-(3,3-dimethylmorpholin-4-yl)ethoxy]imidazo[1,2-a]pyridin-3-yl]-6-methoxy-benzamide]",10 to 100 nM,0.01 to 10 nM,0.01 to 10 nM
"COc1cc(-c2cnc3cc(OCC4(F)CN(C(=O)OC(C)(C)C)C4)ccn23)cc(OC(F)F)c1C(=O)NC1CC1 [Cpd 187, tert-butyl 3-[[3-[4-(cyclopropylcarbamoyl)-3-(difluoromethoxy)-5-methoxy-phenyl]imidazo[1,2-a]pyridin-7-yl]oxymethyl]-3-fluoro-azetidine-1-carboxylate]",10 to 100 nM,0.01 to 10 nM,0.01 to 10 nM
"COc1cc(-c2cnc3cc(OCC(F)(F)CN)ccn23)cc(OC(F)F)c1C(=O)NC1CC1 [compound 364, 4-[7-(3-amino-2,2-difluoro-propoxy)imidazo[1,2-a]pyridin-3-yl]-N-cyclopropyl-2-(difluoromethoxy)-6-methoxy-benzamide]",10 to 100 nM,0.01 to 10 nM,0.01 to 10 nM
"COc1cc(-c2cnc3cc(OCC4CN(CCO)C4)ccn23)cc(OC(F)F)c1C(=O)NC1CC1 [Cpd 343, N-cyclopropyl-2-(difluoromethoxy)-4-[7-[[1-(2-hydroxyethyl)azetidin-3-yl]methoxy]imidazo[1,2-a]pyridin-3-yl]-6-methoxy-benzamide]",10 to 100 nM,0.01 to 10 nM,0.01 to 10 nM
"O=C1c2ncc(-c3cnc4cc(OCCN5CCOCC5)ccn34)cc2CN1CC(F)(F)F [Cpd 266, 3-[7-(2-morpholinoethoxy)imidazo [1,2-a]pyridin-3-yl]-6-(2,2,2-trifluoroethyl)-5H-pyrrolo[3,4-b]pyridin-7-one]",> 500 nM,> 500 nM,> 500 nM
"COc1cc(-c2cnc3cc(OCCN(C)c4ccccc4)ccn23)cc(OC(F)F)c1C(=O)NC1CC1 [Cpd 184, N-cyclopropyl-2-(difluoromethoxy)-6-methoxy-4-[7-[2-(N-methylanilino)ethoxy]imidazo[1,2-a]pyridin-3-yl]benzamide]",0.01 to 10 nM,0.01 to 10 nM,0.01 to 10 nM
"CCOC(=O)C1CCCN(CCCOc2ccn3c(-c4cc(OC)c(C(=O)NC5CC5)c(OC(F)F)c4)cnc3c2)C1 (stereo not drawn) [compound 395, ethyl 1-[3-[3-[4-(cyclopropylcarbamoyl)-3-(difluoromethoxy)-5-methoxy-phenyl]imidazo[1,2-a]pyridin-7-yl]oxypropyl]piperidine-3-carboxylate]",10 to 100 nM,0.01 to 10 nM,0.01 to 10 nM
"COc1cc(-c2cnc3cc(OCC(=O)O)ccn23)cc(OC(F)F)c1C(=O)NC1CC1 [Cpd 396, 2-[3-[4-(cyclopropylcarbamoyl)-3-(difluoromethoxy)-5-methoxy-phenyl]imidazo[1,2-a]pyridin-7-yl]oxyacetic acid]",100 to 500 nM,100 to 500 nM,10 to 100 nM
"COc1cc(-c2cnc3cc(OC4CC5(COC5)C4)ccn23)cc(OC(F)F)c1C(=O)NC1CC1 [compound 162, N-cyclopropyl-2-(difluoromethoxy)-6-methoxy-4-[7-(2-oxaspiro[3.3]heptan-6-yloxy)imidazo[1,2-a]pyridin-3-yl]benzamide]",10 to 100 nM,10 to 100 nM,0.01 to 10 nM
"COc1cc(-c2cnc3cc(OCCCOC(C)=O)ccn23)cc(OC(F)F)c1C(=O)NC1CC1 [Cpd 282, 3-[3-[4-(cyclopropylcarbamoyl)-3-(difluoromethoxy)-5-methoxy-phenyl]imidazo[1,2-a]pyridin-7-yl]oxypropyl acetate]",10 to 100 nM,0.01 to 10 nM,0.01 to 10 nM
